Data on two molecules can be found in US11426417B2, “Neuroactive steroid formulations and methods of treating CNS disorders” (Sage Therapeutics, Inc., priority 2012, dated 2022).

Series [1] has as its system penetrating ballistic brain injury rodent model. The series can be described thus: Penetrating ballistic brain injury rodent model of traumatic brain injury. The format is in vivo. To be noted: in 6% CAPTISOL; low (2.5 then 1.25 mg/kg/hr) and high (5.0 then 2.50 mg/kg/hr) dose groups, 5 day infusion. The text has this: FIG. 5A depicts the latency to fall period (seconds) in a penetrating ballistic brain injury rodent model of traumatic brain injury in both the low and high dose groups progesterone in 6% CAPTISOL®. FIG. 5B depicts the mean motor score in a penetrating ballistic brain injury rodent model of traumatic brain injury in both the low and high dose groups progesterone in 6% CAPTISOL®.
Progesterone in 6% CAPTISOL® rescued motor impairment in a penetrating ballistic brain injury rodent model of traumatic brain injury in both the low and high dose groups (FIG. 5A and FIG. 5B). Progesterone was administered via a bolus loading dose followed by a 5 day continuous infusion where progesterone was tapered over the last 24 hours every 8 hrs by 25%. The low dose group received 2.5 mg/kg/hr for a 1 hr bolus infusion followed by a maintenance dose of 1.25 mg/kg/hr over 5 days with the last 24 hours being a taper. The high dose group received 5.0 mg/kg/hr for a 1 hr bolus infusion followed by a maintenance dose of 2.50 mg/kg/hr over 5 days with the last 24 hours being a taper.

Another series deals with Fmr1 KO mice. Kind of series: Audiogenic seizure (AGS) status epilepticus rescue in Fmr1 knockout mice. The format is in vivo. As to conditions: 3, 10, 30 mg/kg IP in 30% b-Cyclodextrin; relative to vehicle treated control. As to the method:
FIG. 1A is a bar graph depicting the percent seizure in fmr1 KO mice intraperitoneally administered 3, 10, 30 mg/kg allopregnanolone in 30% β-Cyclodextrin. FIG. 1B is a bar graph depicting the percent survival in fmr1 KO mice intraperitoneally administered 3, 10, 30 mg/kg allopregnanolone in 30% β-Cyclodextrin.
Plasma levels of six animals in each Allopregnanolone treatment group were collected randomly at completion of study and analyzed by LC-MS/MS. Bioanalytical measures are indicated in ng/mL (FIG. 1A). Data are presented as mean+/−SEM. *P<0.05 indicate a statistically significant difference relative to vehicle control by Fisher's PLSD. MPEP 30 mg/kg was used as a positive control in the study.

The test system of series [2] is PTZ-treated C57BL6/J mice. The series can be described thus: PTZ (pentylenetetrazol) seizure model, prevention of status epilepticus. The format is in vivo. To be noted: 3, 10, 30 mg/kg IP in 15% β-Cyclodextrin; PTZ 85 mg/kg IP; relative to vehicle-treated control. As to the method:
FIG. 2A is a graph depicting the seizure rank in PZT treated C57BL6/J mice intraperitoneally administered 3, 10, 30 mg/kg allopregnanolone in 15% β-Cyclodextrin. FIG. 2B is graph depicting the latency to death period in PZT treated C57BL65 mice intraperitoneally administered 3, 10, 30 mg/kg allopregnanolone in 15% β-Cyclodextrin.
Plasma levels of three animals in each Allopregnanolone treatment group were collected randomly at completion of study and analyzed by LC-MS/MS. Bioanalytical measures are indicated in ng/mL (FIG. 2A). Data are presented as mean+/−SEM. *P<0.05 indicate a statistically significant difference relative to vehicle control by Fisher's PLSD. Valproate 400 mg/kg was used as a positive control in the study.

A short description of series [3]: Plasma and brain exposure by LC/MS-MS after single IM or IV dose. As to conditions: 30% CAPTISOL, SD rats. The protocol: FIG. 4A depicts the plasma exposure profiles of allopregnanolone measured by LC/MS-MS after single intramuscular (10 mg/kg) or intravenous (5 mg/kg) allopregnanolone dose in 30% CAPTISOL® in SD rats. FIG. 4B depicts the brain exposure profiles of allopregnanolone measured by LC/MS-MS after single intramuscular (10 mg/kg) or intravenous (5 mg/kg) allopregnanolone dose in 30% CAPTISOL® in SD rats.
The plasma and brain exposure profiles of Allopregnanolone were measured by LC/MS-MS after single intramuscular (IM) (10 mg/kg) or intravenous (IV) (5 mg/kg) dose in 30% CAPTISOL® in SD rats. […] N=2/time point. Error bars, SEM (FIGS. 4A and 4B).

Turning to `CC(=O)[C@H]1CC[C@H]2[C@@H]3CCC4=CC(=O)CC[C@]4(C)[C@H]3CC[C@]12C` [Progesterone, pregn-4-ene-3,20-dione], the “motor impairment (latency to fall, mean motor score)” value in series [1] is recorded as “rescued”.
As for `CC(=O)[C@H]1CC[C@H]2[C@@H]3CC[C@H]4C[C@H](O)CC[C@]4(C)[C@H]3CC[C@]12C` [Allopregnanolone, 3 alpha-hydroxy-5 alpha-pregnan-20-one], in the series on Fmr1 KO mice, the “Percent Seizure” value was “significant decrease” and the “Percent Survival” value is “increase”. Also, in series [2], the “Latency to Death” value is given as “increase” and the Seizure rank result was “significant decrease”. Further, in series [3] (0.5-2 hr), the “exposure in plasma, IM (10 mg/kg) relative to IV (5 mg/kg) dose” value was 671-916%. Besides, the “exposure in brain, IM (10 mg/kg) relative to IV (5 mg/kg) dose” value in series [3] (1 hr) came out at 506%.
